Measured values taken from patent US12371454B2, “Cyclic peptide compound having Kras inhibitory action” (priority 2019, dated 2025).
Starred links: 1 amine or outer side, 2 acyl side, 3 side chain; linkers in the order of their positions; H or OH if unused. Positions of bridges follow the written chain, without caps; N, C: chain ends. Non-standard residues stand in square brackets, D forms with d. Residues, ends and D or L forms follow the SMILES beside them. *: point of attachment. hPhe(3-Cl-4-CF3) = N[C@@H](CCc1ccc(C(F)(F)F)c(Cl)c1)C(=O)O; NMePhe(3-CN) = CN[C@@H](Cc1cccc(C#N)c1)C(=O)O; 3Oxa8azabicyclo(3.2.1)octane = C1CC2COCC1N2*; NMeAbu(4,4,4-F3) = CN[C@@H](CC(F)(F)F)C(=O)O; NMePhe(4-Me) = CN[C@@H](Cc1ccc(C)cc1)C(=O)O; NMedβ3hAla = C[C@H](CC(=O)[*:2])N(C)[*:1]; NMeAla(cPent) = CN[C@@H](CC1CCCC1)C(=O)O; NMeGly(cPent) = CN[C@H](C(=O)O)C1CCCC1; dαMeGly(allyl) = C=CC[C@@](C)(N)C(=O)O; NMeGly(cBu) = CN[C@H](C(=O)O)C1CCC1; Gly(cPent) = N[C@H](C(=O)O)C1CCCC1; NMeCha = CN[C@@H](CC1CCCCC1)C(=O)O; NMeGly(cPr) = CN[C@H](C(=O)O)C1CC1; NMeCba = CN[C@@H](CC1CCC1)C(=O)O; NMeChg = CN[C@H](C(=O)O)C1CCCCC1; NMeF = CN[C@@H](Cc1ccccc1)C(=O)O; NMeD = CN[C@@H](CC(=O)O)C(=O)O; NMeL = CN[C@@H](CC(C)C)C(=O)O; d(β3hP) = O=C(O)C[C@H]1CCCN1; NMeNva = CCC[C@H](NC)C(=O)O; NMeV = CN[C@H](C(=O)O)C(C)C; Trifluoroethyl = FC(F)(F)C*; d(β3hA) = C[C@@H](N)CC(=O)O; NMeS = CN[C@@H](CO)C(=O)O; Pip = O=C(O)[C@@H]1CCCCN1; Morpholide = C1CN(*)CCO1; NMeA = CN[C@@H](C)C(=O)O; Piperidide = C1CCN(*)CC1; Pyrrolidide = C1CCN(*)C1; Ac5c = NC1(C(=O)O)CCCC1; Aze = O=C(O)[C@@H]1CCN1; Ac4c = NC1(C(=O)O)CCC1; Aib = CC(C)(N)C(=O)O; Isopentyl = CC(C)CC*; NEtG = CCNCC(=O)O; Sar = CNCC(=O)O

Legend:
[1] = tested on: Human pancreatic cancer cell line AsPC-1; assay: Measurement of AsPC-1 cell growth inhibition (AsPC-1 CGI); format: cell-based; conditions: 96 h
In short: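 AsPC-1 cells in 15% FBS RPMI-1640 were exposed to test compound for 96 hours at 37° C, with CellTiter-Glo as endpoint.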

[2] = target: T1, Kras and SOS1 (biotin-tagged human Kras loaded with GDP, His-tagged human SOS1) (Homo sapiens, UniProt P01116, G12D); assay: Protein-protein interaction inhibition between Kras and SOS1 (KrasGl2D-SOS PPI) using AlphaScreen; format: binding; conditions: AlphaScreen; biotin-tagged human Kras loaded with GDP, His-tagged human SOS1; read-out: KRAS G12D-SOS PPI IC50
T1 construct: made in house; host or cells: E. coli (stated for Kras only)
In short: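 Energy transfer from nickel-chelate donor beads bound to His-SOS1 to streptavidin acceptor beads bound to biotin-Kras, expressed in E. coli and loaded with GDP after purification, was monitored. Donors were excited at 680 nm; singlet oxygen reaching acceptors gave emission read at 520-620 nm.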

T1 sequence (P01116 1-188 isoform P01116-2 G12D): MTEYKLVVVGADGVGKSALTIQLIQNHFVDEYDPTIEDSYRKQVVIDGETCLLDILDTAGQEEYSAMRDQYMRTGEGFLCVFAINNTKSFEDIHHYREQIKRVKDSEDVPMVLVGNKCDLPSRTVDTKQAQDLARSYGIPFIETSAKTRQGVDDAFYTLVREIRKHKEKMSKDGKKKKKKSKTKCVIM

SMILES	IC50 [1] [µM]	IC50 [2] [µM]
CC[C@H](C)[C@@H]1NC(=O)[C@H](C2CCC2)N(C)C(=O)C[C@@H](C)NC(=O)[C@H](C(C)C)N(C)C(=O)C2(CCCC2)NC(=O)[C@@H]2CCCN2C(=O)[C@H](CCc2ccc(C(F)(F)F)c(Cl)c2)NC(=O)CN(C)C(=O)[C@H](CC2CCCCC2)N(C)C(=O)CN(C)C(=O)CN(C)C1=O [Compound 815] (cyclo([Ac5c][NMeV][d(β3hA)][NMeGly(cBu)]I[Sar][Sar][NMeCha][Sar][hPhe(3-Cl-4-CF3)]P))	0.1 to 0.5	0.026
CC[C@H](C)[C@@H]1NC(=O)[C@H](CC(C)C)N(C)C(=O)C[C@@H](C)NC(=O)[C@H](C2CCCC2)N(C)C(=O)C2(CCC2)NC(=O)[C@@H]2CCCN2C(=O)[C@H](CCc2ccc(C(F)(F)F)c(Cl)c2)NC(=O)CN(C)C(=O)[C@H](Cc2ccc(C)cc2)N(C)C(=O)CN(C)C(=O)CN(C)C1=O [Compound 1498] (cyclo([Ac4c][NMeGly(cPent)][d(β3hA)][NMeL]I[Sar][Sar][NMePhe(4-Me)][Sar][hPhe(3-Cl-4-CF3)]P))	0.1 to 0.5	0.0017
C=CC[C@@]1(C)NC(=O)[C@@H]2CCCN2C(=O)[C@H](CCc2ccc(C(F)(F)F)c(Cl)c2)NC(=O)CN(C)C(=O)[C@H](CC2CCCCC2)N(C)C(=O)CN(C)C(=O)CN(C)C(=O)[C@H]([C@@H](C)CC)NC(=O)[C@H](CC(C)C)N(C)C(=O)C[C@@H](C(=O)N2CCCCC2)N(C)C(=O)[C@H](C(C)C)N(C)C1=O [Compound 287] ([NMeL]I[Sar][Sar][NMeCha][Sar][hPhe(3-Cl-4-CF3)]P[dαMeGly(allyl)][NMeV][NMeD]-Piperidide; lactam N-11)	0.1 to 0.5	0.0051
CC[C@H](C)[C@@H]1NC(=O)[C@H](CC(C)C)N(C)C(=O)C[C@@H](C(=O)N2CCCCC2)N(C)C(=O)[C@H](C2CCCCC2)N(C)C(=O)C(C)(C)NC(=O)[C@@H]2CCCN2C(=O)[C@H](CCc2ccc(C(F)(F)F)c(Cl)c2)NC(=O)CN(C)C(=O)[C@H](CC2CCCCC2)N(C)C(=O)CN(C)C(=O)CN(C)C1=O [Compound 1680] ([NMeL]I[Sar][Sar][NMeCha][Sar][hPhe(3-Cl-4-CF3)]P[Aib][NMeChg][NMeD]-Piperidide; lactam N-11)	0.05 to 0.1	0.00061
CC[C@H](C)[C@@H]1NC(=O)[C@H](CC(C)C)N(C)C(=O)C[C@@H](C(=O)N2CCCCC2)N(C)C(=O)[C@H](C(C)C)N(C)C(=O)C2(CCCC2)NC(=O)[C@@H]2CCCN2C(=O)[C@H](CCc2ccc(C(F)(F)F)c(Cl)c2)NC(=O)CN(C)C(=O)[C@H](CC2CCC2)N(C)C(=O)CN(C)C(=O)CN(C)C1=O [Compound 1124] ([NMeL]I[Sar][Sar][NMeCba][Sar][hPhe(3-Cl-4-CF3)]P[Ac5c][NMeV][NMeD]-Piperidide; lactam N-11)	0.1 to 0.5	0.007
CC[C@H](C)[C@@H]1NC(=O)[C@H](C2CC2)N(C)C(=O)C[C@@H](C(=O)N2CCCCC2)N(C)C(=O)[C@H](C(C)C)N(C)C(=O)C2(CCCC2)NC(=O)[C@@H]2CCCN2C(=O)[C@H](CCc2ccc(C(F)(F)F)c(Cl)c2)NC(=O)CN(C)C(=O)[C@H](CC2CCCCC2)N(C)C(=O)CN(C)C(=O)CN(C)C1=O [Compound 980] ([NMeGly(cPr)]I[Sar][Sar][NMeCha][Sar][hPhe(3-Cl-4-CF3)]P[Ac5c][NMeV][NMeD]-Piperidide; lactam N-11)	0.1 to 0.5	0.0038
CC[C@H](C)[C@@H]1NC(=O)[C@H](CC(C)C)N(C)C(=O)C[C@@H](C(=O)N2CCCCC2)N(C)C(=O)[C@H](C(C)C)N(C)C(=O)C2(CCCC2)NC(=O)[C@@H]2CCCN2C(=O)[C@H](CCc2ccc(C(F)(F)F)c(Cl)c2)NC(=O)CN(C)C(=O)[C@H](CC2CCCCC2)N(C)C(=O)[C@@H]2CCN2C(=O)[C@@H]2CCCCN2C1=O [Compound 988] ([NMeL]I[Pip][Aze][NMeCha][Sar][hPhe(3-Cl-4-CF3)]P[Ac5c][NMeV][NMeD]-Piperidide; lactam N-11)	0.1 to 0.5	0.012
CC[C@H](C)[C@@H]1NC(=O)[C@H](CC(C)C)N(C)C(=O)C[C@@H](C)N(C)C(=O)[C@H](C(C)C)N(C)C(=O)C2(CCCC2)NC(=O)[C@@H]2CCCN2C(=O)[C@H](CCc2ccc(C(F)(F)F)c(Cl)c2)NC(=O)CN(C)C(=O)[C@H](Cc2ccccc2)N(C)C(=O)CN(C)C(=O)CN(C)C1=O [Compound 1604] (cyclo([Ac5c][NMeV][NMedβ3hAla][NMeL]I[Sar][Sar][NMeF][Sar][hPhe(3-Cl-4-CF3)]P))	0.05 to 0.1	0.0058
CC[C@H](C)[C@@H]1NC(=O)[C@H](CC(C)C)N(C)C(=O)C[C@@H](C)N(C)C(=O)[C@H](C(C)C)N(C)C(=O)C2(CCCC2)NC(=O)[C@@H]2CCCN2C(=O)[C@H](CCc2ccc(C(F)(F)F)c(Cl)c2)NC(=O)CN(C)C(=O)[C@H](Cc2cccc(C#N)c2)N(C)C(=O)CN(C)C(=O)CN(C)C1=O [Compound 238] (cyclo([Ac5c][NMeV][NMedβ3hAla][NMeL]I[Sar][Sar][NMePhe(3-CN)][Sar][hPhe(3-Cl-4-CF3)]P))	0.1 to 0.5	0.012
CC[C@H](C)[C@@H]1NC(=O)[C@H](COCC(F)(F)F)N(C)C(=O)C[C@@H](C(=O)N2CCCCC2)N(C)C(=O)[C@H](C2CCCCC2)N(C)C(=O)C2(CCCC2)NC(=O)[C@@H]2CCCN2C(=O)[C@H](CCc2ccc(C(F)(F)F)c(Cl)c2)NC(=O)CN(C)C(=O)[C@H](CC2CCCCC2)N(C)C(=O)CN(C)C(=O)CN(C)C1=O [Compound 518] ([NMeS](Trifluoroethyl)I[Sar][Sar][NMeCha][Sar][hPhe(3-Cl-4-CF3)]P[Ac5c][NMeChg][NMeD]-Piperidide; lactam N-11)	0.05 to 0.1	0.00067
CC[C@H](C)[C@@H]1NC(=O)[C@H](CC(C)C)N(C)C(=O)C[C@@H](C(=O)N2CCOCC2)N(C)C(=O)[C@H](C2CCCCC2)N(C)C(=O)C2(CCCC2)NC(=O)[C@@H]2CCCN2C(=O)[C@H](CCc2ccc(C(F)(F)F)c(Cl)c2)NC(=O)CN(C)C(=O)[C@H](CC2CCCC2)N(C)C(=O)CN(C)C(=O)CN(C)C1=O [Compound 1923] ([NMeL]I[Sar][Sar][NMeAla(cPent)][Sar][hPhe(3-Cl-4-CF3)]P[Ac5c][NMeChg][NMeD]-Morpholide; lactam N-11)	0.05 to 0.1	0.00089
CC(C)C[C@H]1C(=O)N[C@@H](C2CCCC2)C(=O)N(C)CC(=O)N(C)CC(=O)N(C)[C@@H](CC2CCCCC2)C(=O)N(C)CC(=O)N[C@@H](CCc2ccc(C(F)(F)F)c(Cl)c2)C(=O)N2CCC[C@H]2C(=O)NC2(CCCC2)C(=O)N(C)[C@@H](C(C)C)C(=O)N(C)[C@H](C(=O)N2CCCCC2)CC(=O)N1C [Compound 1064] ([NMeL][Gly(cPent)][Sar][Sar][NMeCha][Sar][hPhe(3-Cl-4-CF3)]P[Ac5c][NMeV][NMeD]-Piperidide; lactam N-11)	0.1 to 0.5	0.0043
CC[C@H](C)[C@@H]1NC(=O)[C@H](CC(F)(F)F)N(C)C(=O)C[C@@H](C(=O)N2CCCC2)N(C)C(=O)[C@H](C2CCCCC2)N(C)C(=O)C2(CCCC2)NC(=O)[C@@H]2CCCN2C(=O)[C@H](CCc2ccc(C(F)(F)F)c(Cl)c2)NC(=O)CN(C)C(=O)[C@H](Cc2ccc(C)cc2)N(C)C(=O)CN(C)C(=O)CN(C)C1=O [Compound 814] ([NMeAbu(4,4,4-F3)]I[Sar][Sar][NMePhe(4-Me)][Sar][hPhe(3-Cl-4-CF3)]P[Ac5c][NMeChg][NMeD]-Pyrrolidide; lactam N-11)	0.02 to 0.05	0.00041
CC[C@H](C)[C@@H]1NC(=O)[C@H](CC(C)C)N(C)C(=O)C[C@@H](C(=O)N2CCCCC2)N(C)C(=O)[C@H](C2CCCCC2)N(C)C(=O)C2(CCCC2)NC(=O)[C@@H]2CCCN2C(=O)[C@H](CCc2ccc(C(F)(F)F)c(Cl)c2)NC(=O)CN(C)C(=O)[C@H](CC2CCCCC2)N(C)C(=O)CN(CC)C(=O)CN(C)C1=O [Compound 1227] ([NMeL]I[Sar][NEtG][NMeCha][Sar][hPhe(3-Cl-4-CF3)]P[Ac5c][NMeChg][NMeD]-Piperidide; lactam N-11)	0.1 to 0.5	0.0013
CCC[C@H]1C(=O)N[C@@H]([C@@H](C)CC)C(=O)N(C)CC(=O)N(C)CC(=O)N(C)[C@@H](CC2CCCC2)C(=O)N(C)CC(=O)N[C@@H](CCc2ccc(C(F)(F)F)c(Cl)c2)C(=O)N2CCC[C@H]2C(=O)NC2(CCCC2)C(=O)N(C)[C@@H](C2CCCCC2)C(=O)N(C)[C@H](C(=O)N2C3CCC2COC3)CC(=O)N1C [Compound 1916] ([NMeNva]I[Sar][Sar][NMeAla(cPent)][Sar][hPhe(3-Cl-4-CF3)]P[Ac5c][NMeChg][NMeD]-{3Oxa8azabicyclo(3.2.1)octane}; lactam N-11)	0.1 to 0.5	0.00099
CC[C@H](C)[C@@H]1NC(=O)[C@H](COCCC(C)C)N(C)C(=O)C[C@@H](C(=O)N2CCCCC2)N(C)C(=O)[C@H](C2CCCCC2)N(C)C(=O)C2(CCCC2)NC(=O)[C@@H]2CCCN2C(=O)[C@H](CCc2ccc(C(F)(F)F)c(Cl)c2)NC(=O)CN(C)C(=O)[C@H](CC2CCCCC2)N(C)C(=O)CN(C)C(=O)CN(C)C1=O [Compound 1115] ([NMeS](Isopentyl)I[Sar][Sar][NMeCha][Sar][hPhe(3-Cl-4-CF3)]P[Ac5c][NMeChg][NMeD]-Piperidide; lactam N-11)	0.1 to 0.5	0.0025
CC[C@H](C)[C@@H]1NC(=O)[C@H](CC(C)C)N(C)C(=O)C[C@H]2CCCN2C(=O)[C@H](C(C)C)N(C)C(=O)C2(CCCC2)NC(=O)[C@@H]2CCCN2C(=O)[C@H](CCc2ccc(C(F)(F)F)c(Cl)c2)NC(=O)CN(C)C(=O)[C@H](CC2CCCCC2)N(C)C(=O)[C@@H]2CCN2C(=O)[C@H](C)N(C)C1=O [Compound 1332] (cyclo([Ac5c][NMeV][d(β3hP)][NMeL]I[NMeA][Aze][NMeCha][Sar][hPhe(3-Cl-4-CF3)]P))	0.1 to 0.5	0.023
